Data on 71 compounds can be found in ChEMBL document CHEMBL3507680, “University of Dundee, Gates Library screen for HepG2 cell viability”.

The series in a line: Human HepG2 cell viability assay in 384 well format. The arrangement: dose 125 nL, time 70.5 hour; concentration not given beside the values. The note with it: HepG2 cells, read-out: Inhibition. Type of series: toxicity, cell-based.
With `Cc1nc(C)n(C2CCCN(C(=O)c3csc(C(C)C)n3)C2)n1` (stereo unspecified), the cytotoxicity at 70.5 h was 23.9%.
The result for `Cc1cnn(CC2CCCN2C(=O)c2cccnc2-n2cncn2)c1` (stereo unspecified) reads -13.9%; that for `CC(=O)N(Cc1ncc(C)o1)C1CCN(CCc2cccs2)C1` (stereo unspecified), 17.8%; that for `CCn1c(CN(C)Cc2csc(C)n2)nc2cc(F)ccc21`, -20.1%.
The same measure for `COCCNc1cc(-c2ccccc2C(=O)O)c2cc[nH]c2n1`: -10.4%.
The same measure for `O=C(NC1CC1)c1cc2c(s1)CCN2C(=O)C1CC1`: -7.29%.
As to `Cc1ccc(C(=O)N(Cc2cccnc2)C[C@@H]2CCC(=O)N2)s1`, the cytotoxicity at 70.5 h was 28%.
The result for `CS(=O)(=O)c1ccc(NC(=O)N2C[C@H](O)[C@@H](N3CCOCC3)C2)cc1` reads 20.5%.
The result for `CCn1cnnc1CNC(=O)NCC(O)c1ccc(OC)cc1` (stereo unspecified) reads -4.35%; that for `Cc1ccccc1C(C(=O)NCCS(C)(=O)=O)N(C)C` (stereo unspecified), -14.5%.
The same measure for `CCC(O)CN1CCN(C(=O)c2cccc3[nH]ncc23)CC1` (stereo unspecified): -10.6%.
In the case of `CN(CCSc1nncn1C(C)(C)C)c1ccccc1`, the cytotoxicity at 70.5 h stood at 31%.
The same measure for `CCC(NC(=O)c1cc(CC(C)C)nn1C)c1cccc(C)n1` (stereo unspecified): 8.39%; for `Cc1cc(C(=O)N(C)Cc2cccs2)nc(N2CCCCC2)n1`: -6.38%.
The same measure for `CS(=O)(=O)Cc1cccc(C(=O)NCC2Cc3ccccc3O2)c1` (stereo unspecified): -3.94%.
The same measure for `CNC(=O)CNC(=O)Nc1ccc(F)c(Br)c1`: -2.46%; for `COCC1CN(C(=O)Cc2cccc(F)c2)Cc2ccnn2C1` (stereo unspecified): -5.69%; for `CCCc1nc(C(=O)N2CCn3nc(C(=O)OC)cc3C2)cs1`: 16.6%.
Consider `CCn1ccnc1CN1CCN(CC(O)c2ccc(OC)cc2)CC1` (stereo unspecified), for which the cytotoxicity at 70.5 h was 12.3%.
The same measure for `Cc1cnn(CC(C)NCCc2cccs2)c1` (stereo unspecified): 23.7%.
The same measure for `COc1cc(-c2cnnc(NCCCOC(C)C)n2)cc(OC)c1OC`: 6.95%.
Turning to `Cc1nc2[nH]cc(C(=O)N3CCCCC3c3ccc(F)cc3)c(=O)n2n1` (stereo unspecified), the cytotoxicity at 70.5 h was found to be 3.11%.
With `Cc1occc1C(=O)Nc1ccc(C(=O)NC[C@H]2CCCN2)cc1`, the cytotoxicity at 70.5 h was found to be 7%.
The same measure for `COCc1nc(CN2C(=O)OC[C@@H]2C(C)C)no1`: -6.26%; for `O=C(CCn1cncn1)NCC1CCCC1`: -6.57%.
The same measure for `Cc1nccc(C(=O)NC(COCC(C)C)c2ccco2)n1` (stereo unspecified): 19.4%; for `CC(=O)Nn1ccc2c(nnc3c(-c4ccccc4)cnn32)c1=O`: -28.5%.
The result for `O=C(c1ccoc1)N1CCC2(CC1)C(=O)Nc1ccccc12` reads -2.01%; that for `COCCCN1CC2(CCN(C(=O)c3ncc(F)cc3F)CC2)CC1=O`, -9.33%.
With `Cc1nc(C(C)N(C)Cc2nc(CCC(C)C)no2)c(C)s1` (stereo unspecified), the cytotoxicity at 70.5 h is 0.293%.
In the case of `NC(=O)C1CCN(C(=O)CCn2ccc3ccc(F)cc32)CC1`, the cytotoxicity at 70.5 h was -6.99%.
Turning to `C1CC(NCc2nc(C3CC3)no2)CN(Cc2noc(C3CC3)n2)C1` (stereo unspecified), the cytotoxicity at 70.5 h was found to be 21.5%.
The result for `COc1cccc2c1OCC(Cc1cnc(N)c(C)c1)C2` (stereo unspecified) reads -8.04%; that for `CCn1cc(S(=O)(=O)N2CCN(S(=O)(=O)c3ccc(Br)s3)CC2)cn1`, -12%; that for `Cc1nnc2n1CCN(C(=O)c1cc(Br)c(Cl)[nH]1)C2`, -1.01%.
The result for `CC1=NOC(C(=O)N(C)CCCn2nc(C)cc2C)C1` (stereo unspecified) reads -0.336%; that for `Cc1ccc(C(=O)N2CCC3(CCN3c3ncccn3)C2)cn1` (stereo unspecified), -1.31%.
The same measure for `O=C1C[C@H]2CC[C@@H](CN1)N2C(=O)Cc1ccsc1`: -8.54%; for `CCc1nccn1-c1nccnc1C1CCN(C(=O)COC)CC1`: 14.8%; for `Cn1nc(CNC(=O)c2cccc(C(F)(F)F)c2)c2c1CCOC2`: -3.96%.
Take `CN(C)c1ncccc1NC(=O)COC1CCCC1`: the cytotoxicity at 70.5 h is -5.74%.
For `CCc1n[nH]c(C2CN(C(=O)c3ncoc3CC)CCO2)n1` (stereo unspecified), the cytotoxicity at 70.5 h is -13.4%.
The same measure for `CS(=O)(=O)NC[C@@H]1OC[C@H]2CN(C(=O)c3ccccn3)CC[C@H]21`: -3.81%.
On to `O=C(CCc1ccncc1)Nc1ccc(OCC2CC2)cc1`, for which the cytotoxicity at 70.5 h was -11.9%.
For the compound `Cc1nc(N(C)C)ncc1C(=O)NCCc1csc(-c2cnccn2)n1`, the cytotoxicity at 70.5 h is -6.1%.
The same measure for `CCn1ncc2c(C(F)(F)F)cc(-c3cnn(C)c3)nc21`: -11.4%; for `CN(Cc1ccc(CCC(C)(C)O)cc1)CC1(CO)CC1`: -10.9%.
The same measure for `CC(C)NC(=O)C1CN(C(=O)N2CCCC2)CC12CCOCC2` (stereo unspecified): -1.86%; for `Cc1cnc(-c2nc(O)c3c(n2)CN(C(=O)C2CC2)CC3)cn1`: -4.33%.
The result for `CCn1cc(CN(C)Cc2cnn(-c3ccc(F)cc3)c2)cn1` reads 13.5%.
`Cc1cccc(CN(C(=O)CS(C)(=O)=O)C(C)C)c1`: the cytotoxicity at 70.5 h is -2.96%.
Turning to `CN1CCN(CC(NCc2ccc(F)cc2)c2ccccc2)CC1` (stereo unspecified), the cytotoxicity at 70.5 h was 17.2%.
The same measure for `O=C(C1=CCCC1)N1CCC[C@]2(C[C@@H](Oc3ncccc3F)CO2)C1`: -6.43%; for `O=C1[C@H]2CN(CC3CCOCC3)C[C@H]2CN1Cc1cccc(F)c1`: 4.65%; for `O=C(NC1CCCN(c2ccccc2F)C1)c1ccon1` (stereo unspecified): -9.69%.
The same measure for `CCN(Cc1nonc1C)C(=O)c1cc(C(F)(F)F)nn1C`: -7.63%; for `Cc1nc(COCc2cnc3n2CCN(CC2CCC2)C3C)cs1` (stereo unspecified): -5.9%; for `CCNc1ccnc(N2Cc3cnn(Cc4ccc(F)cc4)c3C2)n1`: -4%.
The same measure for `CC(C)NC(=O)[C@H]1C[C@@H]2[C@@H](C1)OCCN2Cc1cnn(C)c1`: -4.89%; for `O=C(Nc1ccc(F)cc1)C1CCc2ccccc2N1` (stereo unspecified): -1.61%; for `Cc1nccn1-c1ccc(NS(=O)(=O)c2cnn(C(C)C)c2)cn1`: -2.54%.
For the compound `CC(C)c1nc(C2CCCN(C(=O)CCn3ccnc3)C2)no1` (stereo unspecified), the cytotoxicity at 70.5 h was 13.6%.
The result for `CC1(C)CN(C(=O)Nc2cc(C(F)(F)F)c[nH]c2=O)CCO1` reads -6.62%; that for `COC(=O)CSCc1noc(-c2ccc(C)cc2)n1`, 0.48%.
The same measure for `CC(C)c1cc(NC(=O)CN2CCC(C(N)=O)CC2)on1`: -6.12%; for `Cc1c[nH]c(CN2CCOC(c3ccc(Cl)cc3)C2)c(C)c1=O` (stereo unspecified): -4.57%.
The result for `CCc1nccn1CCC(=O)N1CCOC(c2ccc(F)cc2)C1` (stereo unspecified) reads -6.46%.
`COc1cccc2c1OCC(C(=O)NCCCn1nc(C)c(Cl)c1C)C2` (stereo unspecified): the cytotoxicity at 70.5 h is -7.76%.
The same measure for `COCC(=O)N1CCC2(COCc3cnc(NCc4ccco4)nc32)C1` (stereo unspecified): -2.26%.
In the case of `CC(C)Cn1cc(NC(=O)NCC2CCN(c3ccccc3)C2)cn1` (stereo unspecified), the cytotoxicity at 70.5 h is -0.00229%.
Regarding `Cc1cccc(N2CC3(CCN(S(=O)(=O)c4cccs4)C3)CC2=O)c1` (stereo unspecified), the cytotoxicity at 70.5 h is -2.22%.
